Like-named read-outs stand apart in the source and are kept apart here.
Test: Single-dose pharmacokinetics, safety and tolerability of 10-minute intravenous infusion in healthy volunteers
Format: in vivo, human
Conditions: for Cmax / Tmax / AUC(0-inf) / AUC(0-t) / clearance / half-life / Vd: human, plasma; for Cmax: read-out: Cmax, mean (SD); for AUC(0-inf): read-out: AUC0-∞, mean (SD) (converted); for AUC(0-t): read-out: AUClast, mean (SD) (converted); for Vd: read-out: Vz, mean (SD)
Experimental: Subjects: This study was conducted at the New Orleans Center for Clinical Research, New Orleans, La., in accordance with US Good Clinical Practice guidelines. Subjects were required to be in generally good health as determined by physical examination and laboratory testing, as well as assessment of vital signs. Exclusion criteria included testing positive on drug screening (drugs of abuse); ingesting caffeine, alcohol, or medication within 24 hours of study entry; or receiving an investigational drug with 30 days of study entry. Women of childbearing potential and men whose female partners were not using an acceptable contraceptive method were excluded. Other exclusion criteria included subjects with known postural hypotension, resting supine systolic blood pressure of 90 mmHg or lower, diastolic blood pressure of 60 mmHg or lower and heart rate of 90 beats/min or greater; history of human immunodeficiency virus infection; positive test result for hepatitis B surface antigen or hepatitis C antibody; and any clinically relevant condition that could potentially confound the analysis or present a safety risk.
Study Methods: The study was designed as a single-center, open-label, nonrandomized, intravenous dose-escalation study in 4 cohorts (n=6 each) of healthy volunteers. The protocol was approved by the institutional review board; all subjects gave written informed consent. Subjects from each cohort were to receive 3 rising doses of binodenoson administered via intravenous infusion over a period of 10 minutes, at a rate not to exceed 6 μg/kg/min. Although the successive doses of binodenoson were administered on the same study day, the washout period between doses was at least 2 hours. Subjects in cohort 1 received consecutive binodenoson doses of 0.1, 0.2 and 0.4 μg/kg; cohort 2 received 0.6, 1 and 2 μg/kg; cohort 3 received 2, 3 and 4 μg/kg; and cohort 4 received 4, 5 and 6 μg/kg.
Serial vital sign monitoring of heart rate, supine systolic blood pressure and diastolic blood pressure was done at screening and during each dosing phase within 10 minutes before infusion, at 2, 4, 6, 8 and 10 minutes during infusion and at 2, 5, 7.5, 10, 15, 20, 30, 45, 60, 90 and 120 minutes after infusion. A 12-lead electrocardiogram (ECG) was obtained at screening and the end of the study. The ECG was monitored via telemetry during the treatment phase, including during the infusions. Monitoring was initiated within 1 hour before dosing and continued until 24 hours after completion of the last dose.
A total of 40 to 42 blood samples were collected during the treatment phase for quantitation of binodenoson in plasma. Before dosing, a polyethylene catheter was inserted into a vein of the forearm contralateral to the infusion site. Blood samples (5 mL) were drawn into prechilled Vacutainer tubes (BD, Franklin Lakes, N.J.) just before infusion (−1 minute), at the midpoint (5 minutes) and end (10 minutes) of infusion and at 2, 5, 7.5, 10, 15, 20, 30, 45, 60, 90 and 120 minutes after the end of infusion. Plasma was separated from cellular material by centrifugation under refrigeration (4° C.) at 4000 rpm for 10 minutes and then stored in cryotubes at −80° C. until analyzed. The total amount of blood taken during the intensive sampling period was approximately 200 mL. Plasma concentrations of binodenoson were determined by a validated high-performance liquid chromatography-mass spectrometry (LC/MS/MS) assay at Phoenix International, Inc. (Montreal, Quebec, Canada).
Pharmacokinetic parameters were derived for each subject's plasma binodenoson concentration-time profile for each binodenoson infusion by use of noncompartmental methods with the statistical software program SAS (SAS Institute, Cary, N.C.). The peak concentration (Cmax) and corresponding time to (Cmax) (tmax) were derived by observation. […]

[1] = 0.4 ug/kg, 0.4 μg/kg iv over 10 minutes
[2] = 0.6 ug/kg, 0.6 μg/kg iv over 10 minutes
[3] = 1 ug/kg, 1 μg/kg iv over 10 minutes
[4] = 2 ug/kg, 2 μg/kg iv over 10 minutes
[5] = 3 ug/kg, 3 μg/kg iv over 10 minutes
[6] = 4 ug/kg, 4 μg/kg iv over 10 minutes
[7] = 6 ug/kg, 6 μg/kg iv over 10 minutes
[8] = 8 ug/kg, 8 μg/kg iv over 10 minutes

## Nc1nc(N/N=C/C2CCCCC2)nc2c1ncn2[C@@H]1O[C@H](CO)[C@@H](O)[C@H]1O (stereo in doubt) [Binodenoson, 2-{2-[(Cyclohexyl)methylene]hydrazino}adenosine]
1 μg/kg dose
  maximum increase in heart rate: 29 beats/min
  mean maximal increase in systolic blood pressure from baseline: 8.8 mmHg
6 μg/kg dose
  maximum increase in heart rate: 66.3 beats/min
  mean maximal increase in systolic blood pressure from baseline: 27.9 mmHg
21 of 24 volunteers
  volunteers reporting at least 1 AE: 83%
All doses
  AEs judged related to administration of binodenoson: 99%
  AEs of mild severity: 82%
  AEs of moderate severity: 17%
  AEs that began during drug infusions and resolved within 30 minutes of onset: 75%
  ECG changes: no clinically significant ECG changes
  serious AEs: no serious AEs
Doses of 1 μg/kg or lower
  frequency of dizziness: 0%
  frequency of headache: 7%
  frequency of nausea/vomiting: 0%
  frequency of paresthesia: 3%
  frequency of vasodilation: 14%
Doses of 2 μg/kg or greater
  frequency of dizziness: 24%
  frequency of headache: 60%
  frequency of nausea/vomiting: 49%
  frequency of paresthesia: 19%
  frequency of vasodilation: 54%
Doses ranging from 0.4 μg/kg to 6 μg/kg
  tolerability: well tolerated
[1]
  Cmax: 0.9 ng/mL
  Tmax: 10 min
  AUC(0-inf): 0.207 ng·h/mL
  AUC(0-t): 0.15 ng·h/mL
  Vd: 0.39 L/kg
[2]
  Cmax: 1.1 ng/mL
  Tmax: 7.5 min
  AUC(0-inf): 0.353 ng·h/mL
  AUC(0-t): 0.208 ng·h/mL
  Vd: 0.46 L/kg
[3]
  Cmax: 2.1 ng/mL
  Tmax: 10 min
  AUC(0-inf): 0.465 ng·h/mL
  AUC(0-t): 0.415 ng·h/mL
  Vd: 0.4 L/kg
[4]
  Cmax: 3.9 ng/mL
  Tmax: 10 min
  AUC(0-inf): 0.928 ng·h/mL
  AUC(0-t): 0.855 ng·h/mL
  Vd: 0.48 L/kg
[5]
  Cmax: 6.2 ng/mL
  Tmax: 9.5 min
  AUC(0-inf): 1.42 ng·h/mL
  AUC(0-t): 1.31 ng·h/mL
  Vd: 0.65 L/kg
[6]
  Cmax: 8.7 ng/mL
  Tmax: 10 min
  AUC(0-inf): 2.03 ng·h/mL
  AUC(0-t): 1.93 ng·h/mL
  Vd: 0.69 L/kg
[7]
  Cmax: 12.5 ng/mL
  Tmax: 9 min
  AUC(0-inf): 2.32 ng·h/mL
  AUC(0-t): 2.22 ng·h/mL
  Vd: 0.7 L/kg
[8]
  Cmax: 12.1 ng/mL
  Tmax: 10.5 min
  AUC(0-inf): 2.72 ng·h/mL
  AUC(0-t): 2.6 ng·h/mL
  Vd: 0.68 L/kg
0.4 ug/kg, 0.4 μg/kg iv over 10 minutes, read-out: CL, mean (SD)
  clearance: 33.4 mL/min/kg
0.4 ug/kg, 0.4 μg/kg iv over 10 minutes, read-out: T1/2, mean (SD)
  half-life: 8.8 min
0.6 ug/kg, 0.6 μg/kg iv over 10 minutes, read-out: CL, mean (SD)
  clearance: 28.8 mL/min/kg
0.6 ug/kg, 0.6 μg/kg iv over 10 minutes, read-out: T1/2, mean (SD)
  half-life: 11.7 min
1 ug/kg, 1 μg/kg iv over 10 minutes, read-out: CL, mean (SD)
  clearance: 38.3 mL/min/kg
1 ug/kg, 1 μg/kg iv over 10 minutes, read-out: T1/2, mean (SD)
  half-life: 7.4 min
2 ug/kg, 2 μg/kg iv over 10 minutes, read-out: CL, mean (SD)
  clearance: 33 mL/min/kg
2 ug/kg, 2 μg/kg iv over 10 minutes, read-out: T1/2, mean (SD)
  half-life: 10 min
3 ug/kg, 3 μg/kg iv over 10 minutes, read-out: CL, mean (SD)
  clearance: 35.4 mL/min/kg
3 ug/kg, 3 μg/kg iv over 10 minutes, read-out: T1/2, mean (SD)
  half-life: 12.8 min
4 ug/kg, 4 μg/kg iv over 10 minutes, read-out: CL, mean (SD)
  clearance: 39.8 mL/min/kg
4 ug/kg, 4 μg/kg iv over 10 minutes, read-out: T1/2, mean (SD)
  half-life: 13 min
6 ug/kg, 6 μg/kg iv over 10 minutes, read-out: CL, mean (SD)
  clearance: 33.9 mL/min/kg
6 ug/kg, 6 μg/kg iv over 10 minutes, read-out: T1/2, mean (SD)
  half-life: 14.9 min
8 ug/kg, 8 μg/kg iv over 10 minutes, read-out: CL, mean (SD)
  clearance: 39.5 mL/min/kg
8 ug/kg, 8 μg/kg iv over 10 minutes, read-out: T1/2, mean (SD)
  half-life: 12.3 min
intravenous, across all dose levels, read-out: mean systemic clearance
  clearance: 34.4 ± 7.5 mL/min/kg
intravenous, across all doses, read-out: terminal half-life, harmonic mean
  half-life: 10 ± 4 min
Linear mixed-effect model, p=0.004
  relationship between clearance (CL) and body weight (BW): CL=−0.19+0.039 BW
Trapezoidal rule
  AUC0-t as share of total AUC0-∞: greater than 80%
